Measured values published in ChEMBL document CHEMBL1201862, “PubChem BioAssay data set” (2004).
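Compound exposure: 48 hours, 5 concentrations, 96-well plates. At the GI50, growth is halved.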 Activity calls are given as the source filed them. Rule as the data show it: active = GI50 up to about 1.1 µM and inactive = higher.

Tests used:
Assay in all cases: growth of human tumour cells (NCI), 48 h
MCF7 = tested on: MCF7
SK-MEL-5 = tested on: SK-MEL-5
OVCAR-8 = tested on: OVCAR-8
UO-31 = tested on: UO-31
KM12 = tested on: KM12
HCT-116 = tested on: HCT-116
A498 = tested on: A498
OVCAR-4 = tested on: OVCAR-4
K562 = tested on: K562
MOLT-4 = tested on: MOLT-4
HL-60 = tested on: HL-60
786-0 = tested on: 786-0
IGROV-1 = tested on: IGROV-1
SN12C = tested on: SN12C
DU-145 = tested on: DU-145
OVCAR-3 = tested on: OVCAR-3
RPMI-8226 = tested on: RPMI-8226
M14 = tested on: M14
SK-MEL-28 = tested on: SK-MEL-28

| SMILES | GI50 (MCF7) | GI50 (SK-MEL-5) | GI50 (OVCAR-8) | GI50 (UO-31) | GI50 (KM12) | GI50 (HCT-116) | GI50 (A498) | GI50 (OVCAR-4) | GI50 (K562) | GI50 (MOLT-4) | GI50 (HL-60) | GI50 (786-0) | GI50 (IGROV-1) | GI50 (SN12C) | GI50 (DU-145) | GI50 (OVCAR-3) | GI50 (RPMI-8226) | GI50 (M14) | GI50 (SK-MEL-28) |
| --- | --- | --- | --- | --- | --- | --- | --- | --- | --- | --- | --- | --- | --- | --- | --- | --- | --- | --- | --- |
| COc1ccc(-c2cc3ccccc3oc2=O)cc1OC | > 100 µM (inactive) | 81.5 µM (inactive) | > 100 µM (inactive) | > 100 µM (inactive) | > 100 µM (inactive) | > 100 µM (inactive) | > 100 µM (inactive) | > 100 µM (inactive) | > 100 µM (inactive) | > 100 µM (inactive) | > 100 µM (inactive) | 70 µM (inactive) | > 100 µM (inactive) | > 100 µM (inactive) | > 100 µM (inactive) | > 100 µM (inactive) | 44.6 µM (inactive) | > 100 µM (inactive) | – |
| CC1CCN(CC(=O)N2c3ccccc3Sc3cc4ccccc4cc32)CC1 | 47.5 µM (inactive) | > 100 µM (inactive) | > 100 µM (inactive) | > 100 µM (inactive) | 51.9 µM (inactive) | 49.7 µM (inactive) | > 100 µM (inactive) | > 100 µM (inactive) | > 100 µM (inactive) | 36.4 µM (inactive) | 24.7 µM (inactive) | > 100 µM (inactive) | > 100 µM (inactive) | 38.7 µM (inactive) | > 100 µM (inactive) | > 100 µM (inactive) | > 100 µM (inactive) | > 100 µM (inactive) | > 100 µM (inactive) |
| CCCNC(=S)N/N=C1\C(=O)Nc2ccccc21 | > 100 µM (inactive) | > 100 µM (inactive) | > 100 µM (inactive) | > 100 µM (inactive) | > 100 µM (inactive) | > 100 µM (inactive) | > 100 µM (inactive) | > 100 µM (inactive) | > 100 µM (inactive) | > 100 µM (inactive) | > 100 µM (inactive) | > 100 µM (inactive) | > 100 µM (inactive) | > 100 µM (inactive) | > 100 µM (inactive) | > 100 µM (inactive) | > 100 µM (inactive) | > 100 µM (inactive) | > 100 µM (inactive) |
| O=C1c2ccccc2C(=O)c2c(NC(=O)C(Cl)CCl)cccc21 (stereo not given) | 0.785 µM (active) | 9.66 µM (inactive) | 5.56 µM (inactive) | 10.6 µM (inactive) | 2.58 µM (inactive) | 10.9 µM (inactive) | 19.2 µM (inactive) | 10.7 µM (inactive) | 0.197 µM (active) | < 0.0353 µM (active) | 0.361 µM (active) | 2.87 µM (inactive) | 5.02 µM (inactive) | 7.67 µM (inactive) | 7.38 µM (inactive) | 11 µM (inactive) | 0.628 µM (active) | 6.28 µM (inactive) | 17.2 µM (inactive) |
| Cc1ccsc1/C=N/Nc1cc(C)c2ccccc2n1 | 15.6 µM (inactive) | 2.17 µM (inactive) | 14.7 µM (inactive) | 10.4 µM (inactive) | 15.6 µM (inactive) | 12.1 µM (inactive) | 10.4 µM (inactive) | 14.6 µM (inactive) | 9.06 µM (inactive) | 9.23 µM (inactive) | 12.2 µM (inactive) | 16.3 µM (inactive) | 1.36 µM (inactive) | 15.2 µM (inactive) | 12.6 µM (inactive) | 3.94 µM (inactive) | 3.28 µM (inactive) | 8.63 µM (inactive) | 14.6 µM (inactive) |
| COc1cc(NS(C)(=O)=O)ccc1NCc1c[nH]c2ccc3nc(C)ccc3c12 | 36.1 µM (inactive) | 42 µM (inactive) | 50.1 µM (inactive) | 28.6 µM (inactive) | 48.9 µM (inactive) | 42.9 µM (inactive) | 20.3 µM (inactive) | 44.3 µM (inactive) | 0.594 µM (active) | 2.9 µM (inactive) | 8.45 µM (inactive) | 30.4 µM (inactive) | 73.6 µM (inactive) | 60.5 µM (inactive) | 32.1 µM (inactive) | 27.6 µM (inactive) | 17.1 µM (inactive) | 56.1 µM (inactive) | > 100 µM (inactive) |
| COc1ccc(C2c3cc4c(cc3OC(N3CCOCC3)C2C)OCO4)cc1 (stereo not given) | 26.1 µM (inactive) | 22.6 µM (inactive) | 34.7 µM (inactive) | 19.9 µM (inactive) | 23.4 µM (inactive) | 20.2 µM (inactive) | 6.03 µM (inactive) | 37.8 µM (inactive) | 12.8 µM (inactive) | 12 µM (inactive) | 21.1 µM (inactive) | 23.8 µM (inactive) | 30.3 µM (inactive) | 37.3 µM (inactive) | 27.7 µM (inactive) | 20.8 µM (inactive) | 15.3 µM (inactive) | 26.9 µM (inactive) | 28.6 µM (inactive) |
| CC(C)(C)OC(=O)NCC(=O)NC1CC=CCC1NC(=O)CNC(=O)OC(C)(C)C (stereo not given) | > 100 µM (inactive) | > 100 µM (inactive) | > 100 µM (inactive) | > 100 µM (inactive) | > 100 µM (inactive) | > 100 µM (inactive) | > 100 µM (inactive) | > 100 µM (inactive) | > 100 µM (inactive) | > 100 µM (inactive) | > 100 µM (inactive) | > 100 µM (inactive) | > 100 µM (inactive) | > 100 µM (inactive) | > 100 µM (inactive) | > 100 µM (inactive) | > 100 µM (inactive) | – | > 100 µM (inactive) |
| O=C(NNS(=O)(=O)c1ccc(Br)cc1)c1ccc(Cl)cc1NC(=O)C12CC3CC(CC(C3)C1)C2 | 11.7 µM (inactive) | 10.9 µM (inactive) | 13.6 µM (inactive) | 11.7 µM (inactive) | 16.4 µM (inactive) | 21.2 µM (inactive) | 15.2 µM (inactive) | 10.6 µM (inactive) | 6.34 µM (inactive) | 6.62 µM (inactive) | 18.9 µM (inactive) | 19.5 µM (inactive) | 11.9 µM (inactive) | 18.9 µM (inactive) | 14.5 µM (inactive) | 11.6 µM (inactive) | 4.49 µM (inactive) | 15 µM (inactive) | – |
| c1ccc2c(c1)[C@@H]1O[C@@H]1[C@@]13O[C@@]21[C@H]1O[C@H]1c1ccccc13 | 10.1 µM (inactive) | 12.9 µM (inactive) | 15.6 µM (inactive) | 33.4 µM (inactive) | 12.9 µM (inactive) | 12.1 µM (inactive) | 15.7 µM (inactive) | 11.9 µM (inactive) | 13.6 µM (inactive) | 10.6 µM (inactive) | 13.3 µM (inactive) | 15.2 µM (inactive) | 12.2 µM (inactive) | 17.7 µM (inactive) | 15.3 µM (inactive) | 16.5 µM (inactive) | 9.16 µM (inactive) | 15.6 µM (inactive) | 16.9 µM (inactive) |
| CCN(C(=O)/C=C/c1ccco1)c1ccccc1 | > 100 µM (inactive) | > 100 µM (inactive) | > 100 µM (inactive) | > 100 µM (inactive) | > 100 µM (inactive) | > 100 µM (inactive) | > 100 µM (inactive) | > 100 µM (inactive) | 46.2 µM (inactive) | 53.8 µM (inactive) | 21.9 µM (inactive) | > 100 µM (inactive) | > 100 µM (inactive) | > 100 µM (inactive) | > 100 µM (inactive) | > 100 µM (inactive) | 75.2 µM (inactive) | > 100 µM (inactive) | > 100 µM (inactive) |
| c1ccc(/N=C2\c3ccsc3/C(=N/c3ccccc3)c3ccsc32)cc1 | 2.62 µM (inactive) | 1.09 µM (active) | 2.11 µM (inactive) | 2.09 µM (inactive) | 2.36 µM (inactive) | 1.93 µM (inactive) | 8.11 µM (inactive) | 1.77 µM (inactive) | 1.83 µM (inactive) | 1.9 µM (inactive) | 1.61 µM (inactive) | 2.75 µM (inactive) | 1.92 µM (inactive) | 1.58 µM (inactive) | 1.73 µM (inactive) | 1.92 µM (inactive) | 1.94 µM (inactive) | 1.34 µM (inactive) | 2.01 µM (inactive) |
| CCC(C#N)NC(=O)NC(C#N)CC (stereo not given) | > 100 µM (inactive) | > 100 µM (inactive) | > 100 µM (inactive) | 58.5 µM (inactive) | > 100 µM (inactive) | > 100 µM (inactive) | > 100 µM (inactive) | 33.6 µM (inactive) | 50.9 µM (inactive) | 28.5 µM (inactive) | > 100 µM (inactive) | > 100 µM (inactive) | > 100 µM (inactive) | > 100 µM (inactive) | > 100 µM (inactive) | > 100 µM (inactive) | > 100 µM (inactive) | > 100 µM (inactive) | – |
| Nc1[nH]c(Nc2ccc(Cl)c(Cl)c2)nc2ncnc1-2 | 14.6 µM (inactive) | 14.6 µM (inactive) | 14.7 µM (inactive) | 8.73 µM (inactive) | 13.7 µM (inactive) | 15.1 µM (inactive) | 6.87 µM (inactive) | 20.3 µM (inactive) | 16.1 µM (inactive) | 11.7 µM (inactive) | 6.67 µM (inactive) | 15.7 µM (inactive) | 4.76 µM (inactive) | 23.6 µM (inactive) | 7.41 µM (inactive) | 11.7 µM (inactive) | 14.5 µM (inactive) | 16 µM (inactive) | – |
| O=C(NCCCCNCCCNC(=O)c1ccccc1)c1ccccc1 | > 100 µM (inactive) | > 100 µM (inactive) | > 100 µM (inactive) | > 100 µM (inactive) | > 100 µM (inactive) | > 100 µM (inactive) | > 100 µM (inactive) | > 100 µM (inactive) | > 100 µM (inactive) | > 100 µM (inactive) | > 100 µM (inactive) | > 100 µM (inactive) | > 100 µM (inactive) | > 100 µM (inactive) | > 100 µM (inactive) | > 100 µM (inactive) | > 100 µM (inactive) | > 100 µM (inactive) | > 100 µM (inactive) |
